According to article PMC8775498, “Development of Cobalt-Binding Peptide Chelate from Human Serum Albumin: Cobalt-Binding Properties and Stability” (International Journal of Molecular Sciences, 2022):
Where a SMILES comes first, the peptide text is derived from it.

Tests used:
[1] = LC-MS analysis of Co(II) binding (alanine scanning analogs); settings: 0.5 mM peptide mixed with 0.5 mM CoCl2; judged by change in molecular weight (about 56) and retention time in LC-MS
Experimental: A mutation was performed to identify the binding properties of wAlb12. […] amino acids of wAlb12 were substituted with alanine and the remaining alanine of wAlb12 was substituted with serine (D1A, A2S, H3A, K4A, S5A, E6A, V7A, A8S, H9A, R10A, F11A, and K12A). In addition, the N-terminal region of wAlb12 was acetylated (Ac-wAlb12). The only N-terminal α-amino group of wAlb12 was acetylated under 70% DCM, 25% acetic anhydride, and 5% triethylamine for 2 h after Fmoc cleavage by 20% piperidine. All of the analogs were synthesized by SPPS, and the purity and molecular weight were confirmed using liquid chromatography-mass spectrometry (LC-MS). The high-performance liquid chromatography (HPLC) gradient program was set up with 5% to 35% buffer B for 15 min, and the molecular weights of the prepared analogs were confirmed using MS in the range of 200 to 1800 m/z.
To verify the binding of peptides to Co(II), HPLC and LC-MS were performed to confirm the retention time and molecular weight. RT-HPLC analyses were performed using Shimadzu 10AD system with a Sunfire® column (C18 5 μm 4.6 mm × 250 mm, Waters, Milford, MA, USA) and a flow rate of 1 mL/min with buffer B (100% acetonitrile containing 0.05% TFA) and buffer A (100% H2O containing 0.05% TFA). The eluted components were monitored at an absorbance of 230 nm with a gradient from 5% to 35% of buffer B for 15 min. […]

in vitro = type: cell-based, rat; settings: mouse, RAW 264.7 cells
Experimental: (§1) RAW 264.7 and HEK 293T cells were cultured at 37 °C under 5% CO2 in 95% DMEM supplemented with 10% FBS and 1% P/S antibiotics. The RAW 264.7 and HEK 293T cells were harvested in 3 mL of DMEM, and centrifugation was performed at 1200× g using the AllegraTM X-12R centrifuge (BECKMAN COULTER). The cell pellet was resuspended in 1 mL of DMEM. The number of cells was counted using a hemocytometer. The cell viability was measured using MTT assay according to the method of Mirzapour-Kouhdasht, Moosavi-Nasab, with a few modifications. The cells were first plated at a density of a 5 × 10^4 cells/well in a 96-well plate. After overnight incubation, the wAlb12 and wAlb12 + Co(II) each dissolved in buffer were used to treat the cells by concentration, which were then incubated for 24 h at 37 °C. Next, 10 µL of 5 mg mL^−1 MTT stock solution was added to each well, and the plate was incubated for 4 h at 37 °C. Next, the medium was removed and 100 µL of DMSO was added to each well to lyse the cells. The treated cells were incubated at 37 °C for 20 min and their absorbance was measured at a wavelength of 600 nm using an ELISA reader (Autobio, Phomo). The percentage viability was calculated using the following formula:Cell viability (%) = [(As) − (Ab)]/[(Ac) − (Ab)] × 100 where As, Ab, and Ac are the absorbance values of the peptide-treated cells, blank, and control samples, respectively.

HEK 293T cells = type: cell-based, human
Experimental: as §1

Binding (adding Co(II)) [1]	Molecule	viability at 24 h (in vitro) [%]	toxicity to HEK 293T cells (HEK 293T cells)
not bound and No	Ac-DAHKSEVAHRFK [Ac-wAlb12, wAlb12 with acetylated N-terminal α-amino group]	–	–
–	CC(C)[C@H](NC(=O)[C@H](CCC(=O)O)NC(=O)[C@H](CO)NC(=O)[C@H](CCCCN)NC(=O)[C@H](Cc1c[nH]cn1)NC(=O)[C@H](C)NC(=O)[C@@H](N)CC(=O)O)C(=O)N[C@@H](C)C(=O)N[C@@H](Cc1c[nH]cn1)C(=O)N[C@@H](CCCNC(=N)N)C(=O)N[C@@H](Cc1ccccc1)C(=O)N[C@@H](CCCCN)C(N)=O [wAlb12] (H-DAHKSEVAHRFK-NH2)	> 100	non-toxic
